Data as given in paper PMC11996864, “A small-molecule inhibitor of BCL10-MALT1 interaction abrogates progression of diffuse large B cell lymphoma” (The Journal of Clinical Investigation, 2025).
Where “and” joins values, the source holds several entries; their conditions need not be identical. Equal values may be shown once.

Key:
Type in all cases: cell-based, human
[1] = test system: RelB cleavage in Jurkat T cells; test: CD3/CD28-induced RelB cleavage, Western blot (MALT1 protease activity); settings: result in words
Procedure: (§1) Western blot analysis of RelB and N4BP1 cleavage was used to test the effect of small molecules on MALT1 protease activity. To this end, 3 million Jurkat T cells were pretreated with compounds for 24 hours in serum-free media, and then 5 μM MG-132 was added for 1 hour before stimulation with CD3/CD28 (Stemcell Technologies, catalog 10971), and lysed in RIPA buffer (Millipore, catalog 20-188) with protease and phosphatase inhibitor cocktail (Pierce, catalog 78446). IKKα/β phosphorylation and IκBα phosphorylation were used as measures of MALT1 scaffolding activity, while ERK1/2 phosphorylation was used as a control. Two million Jurkat T cells were treated with 1 μM M1i-124, 1 μM M1i-124d1, or DMSO in serum-free media for 16 hours, stimulated with CD3/CD28 for 0, 5, 10, or 20 minutes, and then immediately lysed in RIPA buffer with protease and phosphatase inhibitors. For experiments evaluating RelB cleavage and phosphorylation of IκBα in TMD8 cells, cells were treated with compounds for 24 hours in media containing 5% FBS. For RelB Western blot analysis, 5 μM MG-132 (Cell Signaling Technology, catalog 2194s) was added 4 hours before lysis in RIPA lysis buffer with protease/phosphatase inhibitors.

[2] = test system: N4BP1 cleavage in Jurkat T cells; test: CD3/CD28-induced N4BP1 cleavage, Western blot (MALT1 protease activity); settings: result in words
Procedure: as §1

[3] = test system: IKKα/β phosphorylation in Jurkat T cells; test: IKKα/β phosphorylation after CD3/CD28 stimulation (MALT1 scaffolding activity)
Procedure: as §1

[4] = test system: IL2 mRNA in Jurkat T cells; test: IL2 mRNA induction by PMA/Iono, qRT-PCR
Procedure: qRT-PCR. Jurkat T cells grown in serum free media for 4 hours with indicated inhibitors prior to stimulation with PMA/Ionomycin for 4 hours. […]
Total RNA extraction from the […]
(§2) Kit. RNA was transcribed into cDNA using High-Capacity cDNA Reverse Transcription Kit (Applied Biosystems, Cat# 4368814) according to manufacturer’s instructions. RT-PCR was performed using TaqMan Universal PCR Master Mix (Applied Biosystems, Cat# 4304437) and run on a StepOnePlus Real-Time PCR machine (Applied Biosystems). The following probes from ThermoFisher Scientific were used for qRT-PCR: IL2 TaqMan probe Hs00174114, IL6 TaqMan

[5] = test system: IL-2 secretion from Jurkat T cells; test: Secreted IL-2 ELISA after PMA/Iono; settings: for IL-2: Jurkat, PMA/Iono
Procedure: Cytokine ELISAs. Cytokines in cell culture supernatants were measured 20-24h after treatment with 0, 0.01, 0.03, 0.1, 0.3, 1, or 3 µM of compounds using the following ELISA kits according to the manufacturer’s instructions: Human IL-2 ELISA (BioLegend Cat# 431804), Human IL-6 ELISA (BioLegend Cat# 430504), and Human IL-10 ELISA (BioLegend Cat# 430604). […]
Jurkat T cells were pretreated with specific doses of compounds for 8 hours in serum-free media, then stimulated with PMA/ionomycin for 16 hours prior to the collection of supernatants. […]

[6] = test system: RelB cleavage in TMD8 cells; test: Constitutive RelB cleavage, Western blot; settings: result in words
Procedure: as §1

[7] = test system: IκB phosphorylation in TMD8 cells; test: Constitutive IκB phosphorylation, Western blot; settings: result in words
Procedure: as §1

TMD8 cells [8] = test: IL6 and IL10 mRNA, qRT-PCR; settings: TMD8, 1 μM
Procedure: TMD8 cells were treated with small molecule inhibitors for 24 with cultures conditions described above except that FBS was 5%. OCI-Ly3 were treated with inhibitors in serum free media for 24 hours. Total RNA extraction from cell lines was performed using RNeasy Plus Mini Kit (Qiagen, Cat# 74136). […]
as §2

[9] = test system: BCL10 and MALT1 protein in OCI-Ly3 cells; test: BCL10 and MALT1 protein levels, Western blot; settings: OCI-Ly3, 1 μM, 72 hours, result in words
Procedure: (§3) To test the possibility that M1i-124 destabilizes BCL10 and MALT1 within the cell as a consequence of disrupting BCL10-MALT1 interaction, we treated ABC-DLBCL cell lines (TMD8, OCI-Ly3) with M1i-124 for 72 hours and measured the cellular levels of the BCL10 and MALT1 proteins by Western blotting.
(§4) Figure 5 M1i-124 treatment leads to loss of BCL10 and MALT1 protein content in ABC-DLBCL cells. (A) Representative Western blots showing loss of BCL10 and MALT1 proteins, but not ERK1/2 protein, in TMD8 and OCI-Ly3 cells after 72 hours of treatment with 1 μM M1i-124. […] (B) Representative Western blots showing time-dependent loss of BCL10 and MALT1 in TMD8 cells treated with 1 μM M1i-124. (C) Representative Western blots showing dose-dependent loss of BCL10 and MALT1 proteins in TMD8 cells treated with […]. For A–C, band quantifications, normalized for GAPDH, are indicated below each blot. (D) Time-dependent change in BCL10 and MALT1 mRNA expression levels with 1 μM M1i-124 treatment in TMD8 cells. Statistical analysis was performed using unpaired t test between 0 hours and 72 hours (mean ± SEM; n = 3). *P < 0.05, ****P < 0.0001.

[10] = test system: BCL10 and MALT1 protein in TMD8 cells; test: BCL10 and MALT1 protein levels, Western blot; settings: 72 hours, result in words
Procedure: as §3, §4

OCI-Ly1 cells = test: Cell proliferation, trypan blue cell count; settings: for OCI-Ly1 Viable Cells: Mepazine at 1 µM
From the text: (§5) Cell proliferation, viability, and apoptosis assays. Starting with ~20,000 DLBCL cells in 5% FBS
(§6) at day 0, cell number was counted using the trypan blue dye exclusion method with Vi-CELL cell

OCI-Ly7 cells = test: Cell proliferation, trypan blue cell count
From the text: as §5, §6

TMD8 cells [11] = test: Cell proliferation, trypan blue cell count
From the text: as §5, §6

OCI-Ly3 cells = test: Cell proliferation, trypan blue cell count; settings: Day 0; Mepazine at 1 µM

For O=S(=O)(NCc1ccc2c(c1)OCO2)c1ccc(Cc2ccc(S(=O)(=O)NCc3ccc4c(c3)OCO4)cc2)cc1 [M1i-124], the “RelB cleavage in stimulated Jurkat T cells” value [1] was “suppressed the cleavage”, the “N4BP1 cleavage in stimulated Jurkat T cells” value [2] was “suppressed the cleavage” and the “pIKK (normalized)” value ([3]; Jurkat, 1 μM, CD3/CD28 0 min) was 0.4315 and 0.5112 and 0.3213 and 0.2741 and 0.4341. For the same molecule, the IKK phosphorylation ([3]; result in words) was “reduced IKK phosphorylation”, the “IL2 mRNA (normalized)” value ([4]; Jurkat, 1 μM, + PMA/Iono) was 0.1638 and 0.218 and 0.2454 and the “PMA/Iono-induced IL2 gene expression” value ([4]; pretreatment 4 hours, result in words) was “reduction in PMA/Iono–induced IL2 gene expression”. For the same molecule, the “IL-2” value ([5]; 0.01uM) was 670.787 pg/mL and 749.967 pg/mL and 766.89 pg/mL, the “IL-2” value ([5]; 0.03uM) was 564.302 pg/mL and 507.452 pg/mL and 318.494 pg/mL and the “IL-2” value ([5]; 0.1uM) was 327.873 pg/mL and 411.405 pg/mL and 266.705 pg/mL. The “IL-2” value ([5]; 0.3uM) was 173.693 pg/mL and 247.879 pg/mL and 193.913 pg/mL, the “IL-2” value ([5]; 1uM) was 222.117 pg/mL and 210.011 pg/mL and 120.037 pg/mL and the “IL-2” value ([5]; 3uM) was 304.615 pg/mL and 288.86 pg/mL and 235.369 pg/mL. For the same molecule, the “IL-2 protein level (% of control)” value ([5]; PMA/Iono treated, Suppl Fig. 4A) was 34.6066 % of control and 35.497 % of control and 25.5648 % of control, the “IL-2 secretion from Jurkat T cells” value ([5]; result in words) was “dose-dependent reduction in IL-2 secretion” and the “RelB cleavage in TMD8 cells” value [6] was “markedly reduced cleavage of RelB”. For the same molecule, the “IκB phosphorylation in TMD8 cells” value [7] was “marked reduction in IκB phosphorylation”, the “IL-10 mRNA (normalized)” value (TMD8 cells [8]) was 0.19 and 0.23 and 0.25 and 0.2 and 0.18 and 0.32 and the “IL6 and IL10 mRNA levels” value (TMD8 cells [8]; 24 hours, result in words) was “significantly decrease IL6 and IL10 mRNA levels”. For the same molecule, the “BCL10 and MALT1 protein levels” value [9] was “potently induced the loss of both MALT1 and BCL10 proteins”, the ERK1/2 protein levels ([10]; 1 μM) was “no change” and the “BCL10 and MALT1 protein levels” value ([10]; TMD8, 1 μM) was “potently induced the loss of both MALT1 and BCL10 proteins”. For the same molecule, the “OCI-Ly1 Viable Cells” value (OCI-Ly1 cells; Day 0) was 40000 and 20000, the “OCI-Ly1 Viable Cells” value (OCI-Ly1 cells; Day 12) was 590000 and 720000 and 910000 and 860000 and 880000 and 890000 and the “expansion of culture (proliferation)” value (OCI-Ly1 cells; OCI-Ly1, single 1 μM dose, 12 days, result in words) was “no effect on expansion”. For the same molecule, the “expansion of culture (proliferation)” value (OCI-Ly7 cells; OCI-Ly7, single 1 μM dose, 12 days, result in words) was “no effect on expansion”, the Viable cell count (OCI-Ly7 cells; second block headed OCI-Ly1, Day 0, Mepazine at 1 µM) was 20000 and 40000 and the “TMD8 Viable Cells” value (TMD8 cells [11]; Day 0, Mepazine at 1 µM) was 20000. The “expansion of culture (proliferation)” value (TMD8 cells [11]; TMD8, single 1 μM dose, 12 days, result in words) was “significant reduction in the expansion” and the “OCI-Ly3 Viable Cells” value (OCI-Ly3 cells) was 20000.
